Laboratory results as given in patent US11931424B2, “Combination MCL-1 inhibitors with anti-body drug conjugates” (Gilead Sciences, Inc., priority 2021, dated 2024).

System: panel of breast cancer cell lines
Test: Compound A with targeted agents and chemotherapies, 72-hour in vitro proliferation assays
Format: cell-based
Settings: 72-hour proliferation
[1] = AU565 cell line, compound A × partner
[2] = BT-20 cell line, compound A × partner
[3] = BT-474 cell line, compound A × partner
[4] = BT-549 cell line, compound A × partner
[5] = CAL-51 cell line, compound A × partner
[6] = CAL-85-1 cell line, compound A × partner
[7] = CAL-120 cell line, compound A × partner
[8] = CAL-148 cell line, compound A × partner
[9] = CAMA-1 cell line, compound A × partner
[10] = DU-4475 cell line, compound A × partner
[11] = EVSA-T cell line, compound A × partner
[12] = MCF7 cells, Compound A × partner agent
[13] = MDA-MB-175-VII cells, Compound A × partner agent
[14] = MDA-MB-231 cells, Compound A × partner agent
[15] = MDA-MB-361 cells, Compound A × partner agent
[16] = MDA-MB-436 cells, Compound A × partner agent
[17] = MDA-MB-453 cells, Compound A × partner agent
[18] = MDA-MB-468 cells, Compound A × partner agent
[19] = SK-BR-3 cells, Compound A × partner agent
[20] = SUM159PT cells, combination of compound A with the named agent
[21] = T47D cells, combination of compound A with the named agent
[22] = ZR-75-1 cells, combination of compound A with the named agent
[23] = ZR-75-30 cells, combination of compound A with the named agent

CO[C@H]1C[C@@H]2CC[C@@H](C)[C@@](O)(O2)C(=O)C(=O)N2CCCC[C@H]2C(=O)O[C@H]([C@H](C)C[C@@H]2CC[C@@H](OCCO)[C@H](OC)C2)CC(=O)[C@H](C)/C=C(\C)[C@@H](O)[C@@H](OC)C(=O)[C@H](C)C[C@H](C)/C=C/C=C/C=C/1C [Everolimus]
Bliss Volume [1]: 5.68
HSA volume [1]: 2.64
Loewe Volume [1]: 3.01
Synergy Score [1]: 3.02
Bliss Volume [2]: 8.37
HSA volume [2]: 8.23
Loewe Volume [2]: 7.02
Synergy Score [2]: 11.08
Bliss Volume [3]: 3.26
HSA volume [3]: −1.26
Loewe Volume [3]: −2.71
Synergy Score [3]: 2.41
Bliss Volume [4]: 5.93
HSA volume [4]: 8.22
Loewe Volume [4]: 7.87
Synergy Score [4]: 7.35
Bliss Volume [5]: −2.55
HSA volume [5]: 0.45
Loewe Volume [5]: 0.41
Synergy Score [5]: 1.34
Bliss Volume [6]: 10.37
HSA volume [6]: 14.41
Loewe Volume [6]: 13.60
Synergy Score [6]: 16.26
Bliss Volume [7]: −2.79
HSA volume [7]: −1.61
Loewe Volume [7]: −1.62
Synergy Score [7]: 0.53
Bliss Volume [8]: 5.67
HSA volume [8]: 9.58
Loewe Volume [8]: 8.56
Synergy Score [8]: 18.16
Bliss Volume [9]: 10.06
HSA volume [9]: 2.71
Loewe Volume [9]: 3.20
Synergy Score [9]: 7.90
Bliss Volume [10]: 4.29
HSA volume [10]: 1.94
Loewe Volume [10]: 0.97
Synergy Score [10]: 2.43
Bliss Volume [11]: 10.56
HSA volume [11]: −0.76
Loewe Volume [11]: −1.22
Synergy Score [11]: 1.85
Bliss Volume (HCC38, compound A × partner): −6.70
HSA volume (HCC38, compound A × partner): −1.96
Loewe Volume (HCC38, compound A × partner): −2.56
Synergy Score (HCC38, compound A × partner): 2.18
Bliss Volume (HCC70, compound A × partner): 9.56
HSA volume (HCC70, compound A × partner): 8.83
Loewe Volume (HCC70, compound A × partner): 6.84
Synergy Score (HCC70, compound A × partner): 11.30
Bliss Volume (HCC1143, compound A × partner): 8.68
HSA volume (HCC1143, compound A × partner): 8.45
Loewe Volume (HCC1143, compound A × partner): 10.21
Synergy Score (HCC1143, compound A × partner): 9.36
Bliss Volume (HCC1569, compound A × partner): 2.35
HSA volume (HCC1569, compound A × partner): 5.10
Loewe Volume (HCC1569, compound A × partner): 4.65
Synergy Score (HCC1569, compound A × partner): 3.45
Bliss Volume (HCC1806, compound A × partner): 5.19
HSA volume (HCC1806, compound A × partner): 2.88
Loewe Volume (HCC1806, compound A × partner): 5.59
Synergy Score (HCC1806, compound A × partner): 2.52
Bliss Volume (HCC1937, compound A × partner): 1.96
HSA volume (HCC1937, compound A × partner): 3.68
Loewe Volume (HCC1937, compound A × partner): 4.63
Synergy Score (HCC1937, compound A × partner): 4.89
Bliss Volume (HCC1954, compound A × partner): 20.04
HSA volume (HCC1954, compound A × partner): 23.41
Loewe Volume (HCC1954, compound A × partner): 21.71
Synergy Score (HCC1954, compound A × partner): 36.09
Bliss Volume (HCC2218, compound A × partner): −0.77
HSA volume (HCC2218, compound A × partner): −0.63
Loewe Volume (HCC2218, compound A × partner): −2.03
Synergy Score (HCC2218, compound A × partner): 3.37
Bliss Volume (HDQ-P1, compound A × partner): 6.97
HSA volume (HDQ-P1, compound A × partner): −1.39
Loewe Volume (HDQ-P1, compound A × partner): 6.48
Synergy Score (HDQ-P1, compound A × partner): 2.04
Bliss Volume (HMC-1-8, compound A × partner): 9.19
HSA volume (HMC-1-8, compound A × partner): 5.60
Loewe Volume (HMC-1-8, compound A × partner): 5.97
Synergy Score (HMC-1-8, compound A × partner): 9.41
Bliss Volume (JIMT-1, compound A × partner): 5.29
HSA volume (JIMT-1, compound A × partner): 2.41
Loewe Volume (JIMT-1, compound A × partner): 1.96
Synergy Score (JIMT-1, compound A × partner): 1.56
Best CI (KPL-1, compound A × partner): 0.45
Best CI Level (KPL-1, compound A × partner): 95
Bliss Volume (KPL-1, compound A × partner): 2.85
HSA volume (KPL-1, compound A × partner): 5.14
Loewe Volume (KPL-1, compound A × partner): 4.93
Synergy Score (KPL-1, compound A × partner): 6.00
Bliss Volume [12]: 6.88
HSA volume [12]: 7.73
Loewe Volume [12]: 6.93
Synergy Score [12]: 9.72
Bliss Volume [13]: 9.10
HSA volume [13]: 4.72
Loewe Volume [13]: 4.62
Synergy Score [13]: 10.26
Bliss Volume [14]: 0.30
HSA volume [14]: 2.64
Loewe Volume [14]: 3.33
Synergy Score [14]: 2.06
Bliss Volume [15]: 5.72
HSA volume [15]: 4.93
Loewe Volume [15]: 3.91
Synergy Score [15]: 8.70
Bliss Volume [16]: 2.45
HSA volume [16]: 4.01
Loewe Volume [16]: 3.66
Synergy Score [16]: 2.25
Bliss Volume [17]: 3.87
HSA volume [17]: 0.04
Loewe Volume [17]: −0.98
Synergy Score [17]: 5.75
Bliss Volume [18]: 11.63
HSA volume [18]: 9.14
Loewe Volume [18]: 7.97
Synergy Score [18]: 15.60
Bliss Volume [19]: 7.76
HSA volume [19]: 3.46
Loewe Volume [19]: 2.55
Synergy Score [19]: 4.58
Bliss Volume [20]: 0.61
HSA volume [20]: 1.27
Loewe Volume [20]: 0.66
Synergy Score [20]: 1.12
Bliss Volume [21]: −0.21
HSA volume [21]: 2.87
Loewe Volume [21]: 2.69
Synergy Score [21]: 3.70
Bliss Volume [22]: 3.52
HSA volume [22]: 5.12
Loewe Volume [22]: 4.67
Synergy Score [22]: 5.68
Bliss Volume [23]: 3.82
HSA volume [23]: 4.76
Loewe Volume [23]: 4.25
Synergy Score [23]: 7.22
